Measurements published in patent US20050197364A1, “Amide compounds as ion channel ligands and uses thereof” (priority 2003, published 2005).

Experiments:
[1] = molecular target: CYP3A4 (Homo sapiens, UniProt P08684); assay: Cytochrome p450 inhibition assessment, CYP3A4; format: in vitro ADME; conditions: concentration range tested, upper 100 μM
Experimental: (§1) The ability of test compounds to inhibit five major human cytochrome p450 isozymes was evaluated. Cytochrome p450 inhibition assays were performed on 96-well microtiter assay plates according to the protocols described in Gentest P450 inhibition instruction manuals. The assays were performed in duplicate at 8 concentrations with the upper concentration of 100 μM followed by a 1:3 serial dilution. Reactions were initiated by the addition of 100 μL of enzyme/substrate mix to 100 μL of cofactor/serial dilution mix, and terminated by addition of 75 μL of a 4:1 acentonitrile: 0.5 M Tris base solution or by 2N NaOH for CYP3A4/DBF. Fluorescence was measured using a fluorescence plate reader (FLUOstar model 403, BMG Lab Technologies, Durham, N.C.). For reactions with inhibition greater than 50%, IC50 values were determined by fitting the data to the Hill equation using software GraphPad Prism (Version 4.02, GraphPad Software, San Diego, Calif.).

[2] = tested on: capsaicin induced plasma extravasation; assay: Plasma extravasation study (capsaicin applied to ear, Evans Blue); format: in vivo, rat; conditions: rats, dose of 30 mg/kg, dosed two hours before Evans Blue; FIG. 2
Experimental: The density of TRPV1 expression is enhanced during an inflammatory condition. Therefore TRPV1 antagonists have been investigated in three different models of inflammatory pain, namely plasma extravasation, paw lick assay, and thermal hyperalgesia.
Sprague-Dawley male rats obtained from Charles River, San Diego, Calif. were dosed with compound 18. Two hours later, they were injected with Evan's Blue (10 ml/kg or 150 μl). Thirty minutes after I.V. injection, 10 μl of 25 mM capsaicin in 100% ethanol was applied to the left ear of the animal, followed by 10 μl vehicle (100% EtOH) to the right ear of the […]. Fifteen minutes later, the animal was sacrificed using CO2. Each ear was removed, placed into labeled tubes and weighed. The dye was then extracted from the ears by drying the ears at 55-60° overnight. The following day, 250 μl formamide was added and left at 55-60° overnight.
An Evans blue standard curve was first generated ([…]). Samples (with ears) were spun for at least 1 minute before addition of 100 μl of each sample to appropriate wells. Samples were analyzed in a plate holder by SOFTmax PRO. Standards were graphed to generate a standard curve and then used to extrapolate Evans Blue concentrations of experimental samples.

[3] = molecular target: CYP2D6 (Homo sapiens, UniProt P10635); assay: Cytochrome p450 inhibition assessment, CYP2D6; format: in vitro ADME; conditions: concentration range tested, upper 100 μM
Sequence of CYP2D6 (P10635 whole entry): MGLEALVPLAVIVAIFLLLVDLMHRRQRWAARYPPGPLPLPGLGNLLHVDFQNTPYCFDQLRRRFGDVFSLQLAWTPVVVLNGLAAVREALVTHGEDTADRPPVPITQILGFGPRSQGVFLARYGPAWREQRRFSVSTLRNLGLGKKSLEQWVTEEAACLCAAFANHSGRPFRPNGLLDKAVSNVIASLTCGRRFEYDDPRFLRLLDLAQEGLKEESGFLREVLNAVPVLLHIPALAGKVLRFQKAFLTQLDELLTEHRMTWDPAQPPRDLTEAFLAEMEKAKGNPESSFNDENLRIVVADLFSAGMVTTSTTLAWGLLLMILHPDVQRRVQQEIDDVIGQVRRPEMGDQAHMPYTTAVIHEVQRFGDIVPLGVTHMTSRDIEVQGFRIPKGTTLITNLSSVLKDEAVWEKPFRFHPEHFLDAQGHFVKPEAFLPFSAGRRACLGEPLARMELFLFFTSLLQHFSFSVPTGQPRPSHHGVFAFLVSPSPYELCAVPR
Experimental: as §1

Sequence of CYP3A4 (P08684 whole entry): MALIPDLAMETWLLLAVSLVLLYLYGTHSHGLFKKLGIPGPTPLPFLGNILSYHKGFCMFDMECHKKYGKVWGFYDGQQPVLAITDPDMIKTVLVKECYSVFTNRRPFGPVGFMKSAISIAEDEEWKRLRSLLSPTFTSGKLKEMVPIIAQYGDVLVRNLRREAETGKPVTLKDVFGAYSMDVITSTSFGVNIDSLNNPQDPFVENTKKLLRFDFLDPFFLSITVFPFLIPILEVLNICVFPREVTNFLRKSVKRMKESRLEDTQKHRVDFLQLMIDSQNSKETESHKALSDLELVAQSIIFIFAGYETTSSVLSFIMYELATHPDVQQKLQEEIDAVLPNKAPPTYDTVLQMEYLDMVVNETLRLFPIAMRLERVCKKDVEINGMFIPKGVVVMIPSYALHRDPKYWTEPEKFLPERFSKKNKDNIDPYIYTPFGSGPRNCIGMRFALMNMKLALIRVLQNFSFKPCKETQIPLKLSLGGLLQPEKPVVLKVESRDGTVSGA

inhibition of CYP3A4 activity [1]: did not significantly inhibit
inhibition of CYP2D6 activity [3]: did not significantly inhibit
SMILES: O=C(Nc1ccc(C(F)(F)F)cc1)c1ccc(-c2ncccc2Cl)cc1 [Compound 18, 4-(3-Chloropyridin-2-yl)-N-(4-trifluoromethyl-phenyl)benzamide]
capsaicin induced plasma extravasation [2]: significantly blocks
